Measurements published in publication PMC9502466, “Identification of SARS-CoV-2 Main Protease Inhibitors from a Library of Minor Cannabinoids by Biochemical Inhibition Assay and Surface Plasmon Resonance Characterized Binding Affinity” (Molecules, 2022).
“And” between values parts separate entries of the source, which are not always exact repeats. Equal values may be shown once. Read-outs that look alike come from different tables or passages of the source.

Experiments:
[1] = molecular target: T1, SARS-CoV-2 M^pro (Severe acute respiratory syndrome coronavirus 2, UniProt P0DTD1); assay: biochemical; conditions: for inhibition at 10 µM: read-out: inhibition rate of SARS-CoV-2 M^pro activity, 10 μM
[2] = system: pseudovirus expressing the SARS-CoV-2 spike protein; conditions: cited from earlier work
[3] = molecular target: T1, SARS-CoV-2 M^pro; set-up: method as in PMID 33290767; conditions: in vitro, cited from earlier work

In the case of “11-nor-Δ^8-tetrahydrocannabinol-9-Carboxylic acid [11-OH-THC]”, the “inhibition rate of SARS-CoV-2 M^pro activity” value (“inhibition rate” for short) ([1]; 10 µM) is reported as 56.0%.
`C=C(C)[C@@H]1C[C@H](O)C(C)=C[C@H]1c1c(O)cc(CCCCC)cc1O` [6α-OH-CBD, 6α-hydroxy cannabidiol] showed an inhibition at 10 µM [1] of 14.7%.
`CCCCCc1cc(O)c2c(c1)OC(C)(CCC=C(C)C)C=C2` (centres unmarked) [CBC, cannabichromene] showed an inhibition at 10 µM [1] of 42.1%.
With `CCCCCc1cc2c(c(O)c1C(=O)O)C=CC(C)(CCC=C(C)C)O2` (centres unmarked) [CBCA, cannabichromenic acid] the inhibition at 10 µM [1] was < 10%.
In the case of `CCCc1cc2c(c(O)c1C(=O)O)C=CC(C)(CCC=C(C)C)O2` (centres unmarked) [CBCVA, cannabichromevarinic acid], the inhibition at 10 µM [1] is reported as < 10%.
`C=C(C)[C@@H]1CCC(C)=C[C@H]1c1c(O)cc(CCCCC)cc1O` [CBD, cannabidiol, reference compound] gave an inhibition at 50 µM [1] of 13.2%, an inhibition at 250 µM [1] of 23% and an inhibition at 10 µM [1] of 8.74%.
In the case of `C=C(C)[C@@H]1CCC(C)=C[C@H]1c1c(O)cc(CCCCC)c(C(=O)O)c1O` [CBDA, cannabidiolic acid], the “effect on pseudovirus infection (in words)” value [2] is listed as “block the infection”, the inhibition at 2 µM ([1]; 2 μM) is listed as 11.9% and the inhibition at 50 µM [1] is listed as 84.8%. It also gave an inhibition at 250 µM [1] of 101% and an inhibition at 10 µM [1] of 29.4%.
`C=C(C)[C@@H]1CCC(C)=C[C@H]1c1c(O)cc(CCCCC)c(C(=O)OC)c1O` [CBDAME, cannabidiolic acid methyl ester] showed an inhibition at 10 µM [1] of 13.7%.
`C=C(C)[C@@H]1CCC(C)=C[C@H]1c1c(O)cc(CCCC)cc1O` [CBDB, cannabidibutol] showed an inhibition at 10 µM [1] of 19.4%.
In the case of `C=C(C)[C@@H]1CCC(C)=C[C@H]1c1c(O)cc(CCCCCCC)cc1O` [CBDP, cannabidiphorol], the inhibition at 10 µM [1] is reported as 6.55%.
Molecule `C=C(C)[C@@H]1CCC(C)=C[C@H]1c1c(O)cc(CCC)cc1O` [CBDV, cannabidivarin] has an inhibition at 10 µM [1] of 6.87%.
In the case of `CCCCCc1cc(O)c(C/C=C(\C)CCC=C(C)C)c(O)c1` [CBG, cannabigerol], the inhibition at 10 µM [1] is reported as 25.4%.
For `CCCCCc1cc(O)c(C/C=C(\C)CCC=C(C)C)c(O)c1C(=O)O` [CBGA, cannabigerolic acid], the “effect on pseudovirus infection (in words)” value [2] is listed as “block the infection”, the “inhibition rate” value ([1]; 10 μM) is listed as > 70% and the inhibition at 12.5 µM ([1]; 12.5 μM) is listed as 6%. It also gave an inhibition at 25 µM ([1]; 25 μM) of 8%, an inhibition at 50 µM [1] of 18.5% and an inhibition at 100 µM ([1]; 100 μM) of 18.2%. For the same molecule, the inhibition at 250 µM [1] was 72.9%, the IC50 [1] was 14.4 µM and 20.7 µM and the inhibition at 10 µM [1] was 72.9%.
Work on `CCCCCc1cc(O)c2c(c1)OC1(C)CCC3C1C2C3(C)C` (centres unmarked) [CBL, cannabicyclol] yielded an inhibition at 10 µM [1] of 31.1%.
In the case of `CCCCCc1cc(O)c2c(c1)OC(C)(C)c1ccc(C)cc1-2` [CBN, cannabinol], the inhibition at 10 µM [1] is given as 28.7% and the IC50 [3] is given as 7.91 µM.
For `C=C(C)c1ccc(C)cc1-c1c(O)cc(CCCCC)cc1O` [CBND, cannabinodiol], the inhibition at 10 µM [1] was < 10%.
With `CCCCCc1cc2c3c(c1)OC(C)(C)C1CCC(C)(CC31)O2` (centres unmarked) [CBT, cannabicitran] the inhibition at 10 µM [1] was < 10%.
With `O=C[C@H](C[C@@H]1CCNC1=O)NC(=O)[C@H](Cc1cccc(F)c1)NC(=O)c1cc2ccccc2[nH]1` [M^pro 11b, reference compound] the “inhibition rate” value ([1]; 10 µM) was > 98%.
In the case of `Cc1cc(C(=O)N[C@@H](C)C(=O)N[C@H](C(=O)N[C@@H](CC(C)C)C(=O)N[C@H](/C=C/C(=O)OCc2ccccc2)C[C@@H]2CCNC2=O)C(C)C)no1` [M^pro N3, reference compound], the “inhibition rate” value ([1]; 10 µM) is reported as > 98%.
With `CCCCc1cc(O)c2c(c1)OC(C)(C)[C@@H]1CCC(C)=C[C@@H]21` [THCB, Δ^9-tetrahydrocannabibutol] the “inhibition rate” value ([1]; 10 μM) was > 70%, the IC50 [1] was 3.62 µM and the inhibition at 10 µM [1] was 81%.
In the case of `CCCCCc1cc(O)c2c(c1)OC(C)(C)[C@@H]1CCC(C)=C[C@@H]21` [Δ^9-THC, Δ^9-tetrahydrocannabinol, reference compound], the IC50 ([3]; read-out: IC50) is listed as 10.2 µM.
